Measurements as given in paper PMC9884426, “A phase 1 clinical trial of the repurposable acetyllysine mimetic, n-methyl-2-pyrrolidone (NMP), in relapsed or refractory multiple myeloma” (Clinical Epigenetics, 2023).
Where “and” joins values, the source holds several entries; their conditions need not be identical. Equal entries are not always repeated. Where two headings read alike, the source gives them in different places.

Test: Plasma pharmacokinetics of oral NMP by LCMSMS
Assay type: in vivo, human
Conditions: plasma, plasma
Experimental: Blood samples were taken from patients before NMP and at one, two, four, eight and 24 h post dose. Plasma samples (20 μl) were prepared by adding five volumes of methanol containing deuterated internal standard. The samples were vortexed then centrifuged, and the supernatant was transferred to a vial and injected onto the LCMSMS. The LCMSMS system consisted of a Shimadzu UHPLC with a SCIEX 6500QTrap, a KinetexC18 (3 × 50 mm, 2.6 μm) column and using a gradient of 0.1% formic acid and acetonitrile. The initial conditions were 0.5 ml/min and 2% acetonitrile; this was held for 1 min then increased to 20% acetonitrile at 2 min then increased to 70% acetonitrile and held for 0.5 min. Equilibration time was 0.5 min. MRMs for NMP were 100 → 58, 100 → 69, 100 → 41 and for the internal standard d9NMP 109 → 62, […]. PK analysis was performed using Pkanalix (version 2021R1. Antony, France: Lixoft SAS, 2021).

[1] = oral 25 mg, patient RMH-01 occasion 6
[2] = oral 50 mg, average of N = 5 profiles
[3] = oral 50 mg, individual profiles, patient RMH-01 occasions 1-5
[4] = oral 100 mg, average of N = 5 profiles
[5] = oral 100 mg, individual profiles, patient RMH-02 occasions 1-5
[6] = oral 200 mg, average of N = 8 profiles
[7] = oral 200 mg, individual profiles (PMC-03, MON-04, MON-06, MON-07, PMC-08)
[8] = oral 200 mg, individual profiles (PMC-03, MON-04, PMC-05, MON-06, MON-07, PMC-08)
[9] = oral 300 mg, average of N = 3 profiles
[10] = oral 300 mg, individual profiles (PMC-09, MON-10, MON-11)
[11] = oral 400 mg, average of N = 2 profiles
[12] = oral 400 mg, individual profiles (MON-11 occasion 2, MON-12)
[13] = oral 500 mg, patient MON-11 occasion 3
[14] = oral 600 mg, patient MON-11 occasion 4
[15] = oral 700 mg, patient MON-11 occasion 5
[16] = oral 800 mg, patient MON-11 occasion 6

CN1CCCC1=O [NMP, N-methyl-2-pyrrolidone]
Cmax (human, po, 700 mg, oral 700 mg, patient MON-11 occasion 5, read-out: Cmax): 12400 ng/mL
half-life (human, po, 700 mg, oral 700 mg, patient MON-11 occasion 5, read-out: Half-life (converted)): 2.35 h
Tmax (human, po, 700 mg, oral 700 mg, patient MON-11 occasion 5, read-out: Tmax): 0.5 h
Cmax (human, po, 800 mg, 800 mg dose level, oral, one patient, read-out: highest Cmax achieved): ~168 µM
AUC (human, po, 800 mg, oral 800 mg, patient MON-11 occasion 6, read-out: AUC): 90300 ng·h/mL
Cmax (human, po, 800 mg, oral 800 mg, patient MON-11 occasion 6, read-out: Cmax): 16700 ng/mL
half-life (human, po, 800 mg, oral 800 mg, patient MON-11 occasion 6, read-out: Half-life (converted)): 1.75 h
Tmax (human, po, 800 mg, oral 800 mg, patient MON-11 occasion 6, read-out: Tmax): 1 h
Cmax (human, po, 800 mg, oral, one patient, read-out: Maximum plasma concentration (Cmax), highest achieved): 16700 ng/mL
half-life (human, po, all dose levels 25-800 mg oral, N = 28 profiles, read-out: Half-life, Overall Average (converted)): 1.55 h
AUC (human, po, all dose levels 25-800 mg oral, N = 29 profiles, read-out: AUC, Overall Average): 16900 ng·h/mL
Cmax (human, po, all dose levels 25-800 mg oral, N = 29 profiles, read-out: Cmax, Overall Average): 5290 ng/mL
Tmax (human, po, all dose levels 25-800 mg oral, N = 29 profiles, read-out: Tmax, Overall Average): ~0.5 h
CL/F [1]: 16.65 L⋅h⁻¹
V/F [1]: 20.83 L
CL/F, Average [2]: 23.62 L⋅h⁻¹
V/F, Average [2]: 36.62 L
AUC [3]: 1.86 h⋅mg⋅L⁻¹ and 1.88 h⋅mg⋅L⁻¹ and 2.09 h⋅mg⋅L⁻¹ and 2.18 h⋅mg⋅L⁻¹
CL/F [3]: 17.68 L⋅h⁻¹ and 26.86 L⋅h⁻¹ and 26.66 L⋅h⁻¹ and 23.93 L⋅h⁻¹ and 22.97 L⋅h⁻¹
Cmax [3]: 1.24 mg⋅L⁻¹ and 1.25 mg⋅L⁻¹ and 1.04 mg⋅L⁻¹ and 1.06 mg⋅L⁻¹
V/F [3]: 30.85 L and 38.66 L and 41.02 L and 35.88 L and 36.67 L
half-life [3]: 0.99 h and 1.07 h and 1.04 h and 1.11 h
CL/F, Average [4]: 14.04 L⋅h⁻¹
V/F, Average [4]: 36.98 L
AUC [5]: 7.25 h⋅mg⋅L⁻¹ and 6.95 h⋅mg⋅L⁻¹ and 7.61 h⋅mg⋅L⁻¹ and 6.88 h⋅mg⋅L⁻¹
CL/F [5]: 14.35 L⋅h⁻¹ and 13.79 L⋅h⁻¹ and 14.4 L⋅h⁻¹ and 13.13 L⋅h⁻¹ and 14.53 L⋅h⁻¹
Cmax [5]: 2.51 mg⋅L⁻¹ and 2.52 mg⋅L⁻¹ and 2.43 mg⋅L⁻¹ and 2.65 mg⋅L⁻¹
V/F [5]: 34.92 L and 41.77 L and 37.5 L and 34.02 L and 36.67 L
CL/F, Average [6]: 25.52 L⋅h⁻¹
V/F, Average [6]: 49.77 L
CL/F [7]: 31.82 L⋅h⁻¹ and 24.02 L⋅h⁻¹ and 25.05 L⋅h⁻¹ and 20.34 L⋅h⁻¹ and 18.2 L⋅h⁻¹ and 9.1 L⋅h⁻¹ and 57.76 L⋅h⁻¹ and 17.85 L⋅h⁻¹
V/F [7]: 64.35 L and 55.72 L and 43.19 L and 37.65 L and 36.79 L and 26.02 L and 87.19 L and 47.25 L
AUC [8]: 6.29 h⋅mg⋅L⁻¹ and 8.33 h⋅mg⋅L⁻¹ and 7.98 h⋅mg⋅L⁻¹ and 9.83 h⋅mg⋅L⁻¹ and 5.49 h⋅mg⋅L⁻¹ and 10.99 h⋅mg⋅L⁻¹ and 21.99 h⋅mg⋅L⁻¹ and 3.46 h⋅mg⋅L⁻¹ and 11.21 h⋅mg⋅L⁻¹
Cmax [8]: 2.33 mg⋅L⁻¹ and 3.98 mg⋅L⁻¹ and 4.43 mg⋅L⁻¹ and 5.05 mg⋅L⁻¹ and 2.05 mg⋅L⁻¹ and 4.95 mg⋅L⁻¹ and 7.26 mg⋅L⁻¹ and 2.64 mg⋅L⁻¹ and 3.79 mg⋅L⁻¹
CL/F, Average [9]: 15.62 L⋅h⁻¹
V/F, Average [9]: 33.93 L
AUC [10]: 32.55 h⋅mg⋅L⁻¹ and 12.73 h⋅mg⋅L⁻¹ and 21.3 h⋅mg⋅L⁻¹
CL/F [10]: 9.22 L⋅h⁻¹ and 23.57 L⋅h⁻¹ and 14.08 L⋅h⁻¹
Cmax [10]: 6.89 mg⋅L⁻¹ and 6.81 mg⋅L⁻¹
V/F [10]: 22.09 L and 38.59 L and 41.1 L
half-life [10]: 1.13 h and 2.02 h
CL/F, Average [11]: 19.53 L⋅h⁻¹
V/F, Average [11]: 42.44 L
AUC [12]: 15.99 h⋅mg⋅L⁻¹
CL/F [12]: 14.03 L⋅h⁻¹ and 25.02 L⋅h⁻¹
Cmax [12]: 7.63 mg⋅L⁻¹
V/F [12]: 35.95 L and 48.93 L
half-life [12]: 1.36 h
CL/F [13]: 12.33 L⋅h⁻¹
V/F [13]: 35.2 L
CL/F [14]: 10.59 L⋅h⁻¹
V/F [14]: 33.11 L
CL/F [15]: 12.16 L⋅h⁻¹
V/F [15]: 41.26 L
CL/F [16]: 8.86 L⋅h⁻¹
V/F [16]: 22.43 L
